Test results reported in article PMC5654968 (NPJ Systems Biology and Applications, 2017).
Read-outs that look alike come from different tables or passages of the source.

Assay type: in vivo, rat
Experimental: Distilled water and saline were administered as vehicle to rats in each control group. […] Plasma cytokine levels were measured by ELISA or multiplex immunoassay; common metabolites and lipid mediators were analyzed by GC-MS/MS and LC-MS/MS, respectively.
Pathway maps of lipid mediators were created by using CellDesigner 4.4 software (http://www.celldesigner.org). We evaluated the effects of the treatments on specific lipid mediators and categorized them according to COX, CYP and LOX pathways by Fisher’s exact test. The proinflammatory and anti-inflammatory indices were analyzed as described by Tam et al. with modification.[22]

[1] = PM/P (polyI:C+maoto vs polyI:C), 2h
[2] = PM/P (polyI:C+maoto vs polyI:C), 4h

Row | SMILES | log2FC of plasma level (M/C (maoto vs control), 2h) | log2FC of plasma level (M/C (maoto vs control), 4h) | log2FC of plasma level (P/C (polyI:C vs control), 2h) | log2FC of plasma level (P/C (polyI:C vs control), 4h) | log2FC of plasma level [1] | log2FC of plasma level [2]
1 | CCCCC/C=C\C/C=C\C=C\C(O)C/C=C\CCCC(=O)O (stereo not drawn) [8-HETE] | 0.09 | -0.40 | -0.12 | 0.39 | 0.05 | -0.62
2 | CCCCCC(=O)/C=C/[C@@H]1[C@H](C/C=C\CCCC(=O)O)[C@@H](O)C[C@H]1O [8-iso-15-keto-PGF2α] | -0.41 | -0.68 | -0.16 | 1.04 | -0.14 | -0.99
3 | CCCCC[C@H](O)/C=C/[C@H]1[C@H](O)CC(=O)[C@H]1C/C=C\CCCC(=O)O [8-iso-PGE2] | -0.45 | -0.43 | -0.13 | 0.77 | -0.23 | -0.98
4 | CCCCC/C=C\CC(O)C(O)CCCCCCCC(=O)O (stereo not drawn) [9,10-DiHOME] | 0.50 | -0.34 | 0.31 | -0.14 | 0.19 | -0.10
5 | CCCCC/C=C\CC1OC1CCCCCCCC(=O)O (stereo not drawn) [9,10-EpOME] | 0.04 | -0.80 | 0.10 | 0.36 | -0.30 | -1.14
6 | CCCCC/C=C\C/C=C\CC(O)/C=C/C=C\CCCC(=O)O (stereo not drawn) [9-HETE] | 0.09 | -0.42 | -0.22 | 0.63 | 0.30 | -1.09
7 | CCCCC/C=C\C=C\C(O)CCCCCCCC(=O)O (stereo not drawn) [9-HODE] | -0.05 | -0.53 | -0.02 | 0.50 | -0.13 | -0.97
8 | CC/C=C\C/C=C\C=C\C(O)CCCCCCCC(=O)O (stereo not drawn) [9-HOTrE] | 0.03 | -0.77 | 0.04 | 0.61 | -0.05 | -1.19
9 | CCCCC/C=C\C=C\[C@H](CCCCCCCC(=O)O)OO [9-HpODE, 9S-hydroperoxy-10E,12Z-octadecadienoic acid] | 2.26 | -2.31 | 0.65 | 0.35 | -0.77 | -1.51
10 | CCCCC/C=C/C=C/C(=O)CCCCCCCC(=O)O [9-KODE] | -0.09 | -0.95 | -0.17 | 0.97 | -0.03 | -1.16
11 | CC/C=C\C/C=C\C/C=C\C=C\C(O)C/C=C\C/C=C\CCC(=O)O (stereo not drawn) [10-HDoHE] | 0.15 | -0.47 | 0.01 | 0.14 | -0.04 | -0.60
12 | CCCCC/C=C\CC(O)C(O)C/C=C\C/C=C\CCCC(=O)O (stereo not drawn) [11,12-DHET] | 0.90 | 0.13 | -0.15 | 0.23 | 0.19 | -0.31
13 | CCCCC/C=C\C[C@H]1O[C@H]1C/C=C\C/C=C\CCCC(=O)O [11,12-EET] | -0.50 | -0.33 | -0.22 | 0.37 | -0.13 | -0.59
14 | CC/C=C\C/C=C\C/C=C\CC(O)/C=C/C=C\C/C=C\CCC(=O)O (stereo not drawn) [11-HDoHE] | 0.35 | -0.42 | 0.05 | 0.13 | 0.03 | -0.58
15 | CCCCC/C=C\C=C\C(O)C/C=C\C/C=C\CCCC(=O)O (stereo not drawn) [11-HETE] | 0.15 | -0.41 | 0.23 | 0.38 | 0.04 | -0.66
16 | CCCCCC(O)C(O)C/C=C\CCCCCCCC(=O)O (stereo not drawn) [12,13-DiHOME] | 0.57 | -0.31 | 0.25 | 0.12 | 0.26 | -0.28
17 | CC/C=C\C/C=C\CC(O)/C=C/C=C\C/C=C\CCCC(=O)O (stereo not drawn) [12-HEPE] | 1.09 | -0.37 | -0.06 | 0.02 | 0.67 | -0.27
